Measured values from ChEMBL document CHEMBL1143664, “New antitumoral acetogenin 'Guanacone type' derivatives: isolation and bioactivity. Molecular dynamics simulation of diacetyl-guanacone” (Bioorg Med Chem, 2007).

What was measured:
A549 = assay: Antitumor activity against human A549 cells after 24 hrs by MTT assay; assay type: functional; details: A549, 24 h, read-out: ED50 (the source's name)
MCF7 = assay: Antitumor activity against human MCF7 cells after 24 hrs by MTT assay; assay type: functional; details: MCF7, 24 h, read-out: ED50 (the source's name)
[1] = Antitumor activity against human MES-SA cells after 24 hrs by MTT assay; assay type: functional; details: read-out: ED50 (the source's name)
HepG2 = assay: Antitumor activity against human HepG2 cells after 24 hrs by MTT assay; assay type: functional; details: HepG2, 24 h, read-out: ED50 (the source's name)
HT-29 = assay: Antitumor activity against human HT29 cells after 24 hrs by MTT assay; assay type: functional; details: HT-29, 24 h, read-out: ED50 (the source's name)
[2] = Antitumor activity against doxorubucin-resistant human MES-SA/Dx5 cells by MTT assay after 24 hrs; assay type: functional; details: MES-SA/Dx5, 24 h, read-out: ED50 (the source's name)
[3] = Inhibition of NADH-ubiquinone oxidoreductase assessed by NADH oxidase activity in beef heart submitochondrial particles; design: species or system Bos taurus

SMILES	EC50 (A549) [µM]	EC50 (MCF7) [µM]	EC50 [1] [µM]	EC50 (HepG2) [µM]	EC50 (HT-29) [µM]	EC50 [2] [µM]	IC50 [3] [µM]
COc1cccc2c1C(=O)c1c(O)c3c(c(O)c1C2=O)C[C@@](O)(C(=O)CO)C[C@@H]3O[C@H]1C[C@H](N)[C@H](O)[C@H](C)O1 [DOXORUBICIN]	152	8	173	102	274	> 500	–
CCCCCCCCCC[C@H](O)[C@H]1CC[C@H]([C@H]2CC[C@H]([C@H](O)CCCCC(=O)CCCCCCCC3=C[C@H](C)OC3=O)O2)O1 [GUANACONE]	148	39	22	11	71	52	0.0012
CCCCCCCCCC[C@H](OC(C)=O)[C@H]1CC[C@H]([C@H]2CC[C@H]([C@H](O)CCCCC(=O)CCCCCCCC3=C[C@H](C)OC3=O)O2)O1	192	50	43	18	154	83	0.0034
CCCCCCCCCC[C@H](O)[C@H]1CC[C@H]([C@H]2CC[C@H]([C@@H](CCCCC(=O)CCCCCCCC3=C[C@H](C)OC3=O)OC(C)=O)O2)O1	101	66	76	51	169	97	0.0028
CCCCCCCCCC[C@H](OC(C)=O)[C@H]1CC[C@H]([C@H]2CC[C@H]([C@@H](CCCCC(=O)CCCCCCCC3=C[C@H](C)OC3=O)OC(C)=O)O2)O1	60	29	28	9	195	56	0.0004
C=C(C)[C@H]1Cc2c(ccc3c2O[C@@H]2COc4cc(OC)c(OC)cc4[C@@H]2C3=O)O1 [ROTENONE]	26	161	147	15	202	214	0.0051
